{"source": "patent US8278265B2", "about": "“Methods, kits and compositions comprising crotamine” (Fundacao de Amparo a Pesquisa do Estado de Sao Paulo—FAPESP, priority 2005, dated 2012)", "key": {"[1]": {"system": "embryonic stem cells (ES) of mice", "assay": "Embriotoxicity assay: cytotoxic effects on embryonic stem cells", "type": "cell-based", "settings": "submicromolar concentrations, between 10^−6 and 10^−7 M; five days", "description": "Bearing in mind that crotamine is a toxin, cytotoxic effects were tested on embryonic stem cells (ES) of mice which are non-differentiated cells, derived from the embryonic bud of blastocytes, and have as their main characteristic their pluripotence, an ability to differentiate to different types of tissues.\nSuch cells were chosen bearing in mind the usefulness of crotamine application for gene therapy (by means of stem cells) and transgenesis, as a carrier of other molecules to within cells. Four different concentrations were tested for five days. […] The assay was as follows.\nEmbryonic bodies (EBs) were obtained by the hanging drop method, as described above, using culture medium containing crotamine at various concentrations (100 μM to 0.1 μM), changing the medium every two to three days. To analyze the crotamine location in EBs under development, crotamine was substituted with crotamine linked to Cy3 (Cy3-crotamine) during the final 24 hours of incubation. Compact murine morulae (8-16 cells) were obtained from the oviduct and cultivated for 24 hours at 37° C. in 5% CO2, in individual microwells of V-bottom plates (Costar) with […] microwells in M16 medium (supplier: Sigma) and Cy3-crotamine (1-0.1 μM). After 24 hours of culture, normally developed blastocyst numbers were compared within the control and the experimental group."}, "[2]": {"system": "actively proliferating cells", "assay": "Marker for actively proliferating cells (BrDU co-labeling)", "type": "cell-based, mice", "settings": "FIG. 8E-H", "description": "The hanging drop method was used, with some amendments, to induce the differentiation of ES cells from USP-1 line (Wobus, A. M., Wallukat, G., Hescheler, J. (1991), Pluripotent Mouse Embryonic Cells are Able to Differentiate into Cardiomyocytes Expressing Chronotropic Responses to Adrenergic and Cholinergic Agents and Ca^2+ Channel Blockers, Differentiation 48, 173-182). Briefly, ES cell suspensions without fibroblasts were obtained, collected with 0.25% trypsin/EDTA (Gibco, U.S.A.). Said suspension was diluted up to 3.5×10^4 cells/ml and dropped by using a micropipette (25 μl per drop) on the Petri dish cap (10 cm). Drops adhered to the surface were turned upside down over the plate already containing 5 ml PBS. After three days in a CO2 oven, in the hanging drop culture in appropriate culture medium for ES, with no LIF, aggregates are formed, known as embryonic bodies (EBs). EBs were later transferred to another plate (35 mm) with a 1% agarose layer, and maintained in the CO2 oven at 37° C. On the fifth day, EBs were transferred to microscope slides, on another Petri dish, where they adhered and started differentiating into a monolayer.\nEmbryonic bodies, obtained according to the protocol as described above, after three days, adhered to small glass slides. […] Microscope slides were assembled in a PBS/glycerol solution (1:1) and analysed in a confocal microscope. […]"}, "mice": {"system": "mice", "settings": "injected intraperitoneally; cited from earlier work"}, "human fibroblasts": {"system": "human fibroblasts", "assay": "In vitro incorporation of Cy3-crotamine in human fibroblasts", "type": "cell-based", "settings": "after one hour of incubation, FIG. 2A", "description": "(§1) Embrionary stem cells (ES) from mice, line USP-1 (Soukoyan, M. A., Kerkis, A. Y., Mello, M. R. B., Kerkis, I. E., Visintin, J. A., Pereira, L. V. (2002), Establishment of New Murine Embryonic Stem Cell Lines for the Generation of Mouse Models of Human Genetic Diseases, Braz. J. Med. Biol. Res. 35, 535-542) in the passage 8-10 were cultured on a layer of γ-irradiated embrionary fibroblasts of mice, kept in DMEM (Gibco, U.S.A.), supplemented with 15% FCS (Gibco, U.S.A.), 1 mM sodium piruvate, 1% non-essential amino acids, 0.1 mM β-mercaptoethanol and 1×103 U/ml murine Leukemia Inhibitor Factor (LIF) (ESGRO-LIF, Gibco). Human lymphoblastoids and primary fibroblasts were cultivated in DMEM and in RPMI, respectively, supplemented with 10% FCS with no antibiotics. Cultures were kept under humid atmosphere at 37° C. and 5% CO2.\n(§2) In vitro assay: Semiconffluent cultures of pluripotent and differentiation ES cells (homogeneous cell population), as well as other cell cultures of normal and tumor origin, were kept in small laminar slides placed in 24-well plates containing appropriate culture medium. Cells were incubated for 2-3 minutes to 72 hours in the presence of Cy3-crotamine, under concentrations between 10 μM and 0.01 μM, or as control, just in the presence of the dye agent Cy3 diluted in 1 ml PBS (control). […]"}, "[3]": {"system": "Murine pluripotent embryonic stem cells", "assay": "In vitro incorporation of Cy3-crotamine in pluripotent embryonic stem cells", "type": "cell-based", "settings": "FIG. 2D and E", "description": "as §1, §2"}, "chromosomes": {"system": "chromosomes", "assay": "Chromosome analysis", "type": "cell-based", "settings": "1 μM, compared with DAPI or 5-BrDU staining", "description": "1 μM crotamine conjugated to Cy3 was added to the culture of ES-USP1 cells, human lymphoblastoids and primary fibroblasts for 1, 3, 6 and 24 hours. Cells were collected and treated according to the routine cytogenetic protocol, with no addition of colchicine. Digital images were obtained with refrigerated CCD (PCO, VC44) and processed by using ISIS software (MetaSystem)."}}}
{"sequence": "YKQCHKKGGHCFPKEKICLPPSSDFGKMDCRWRWK CCKKGSG (YKQCHKKGGHCFPKEKICLPPSSDFGKMDCRWRWKCCKKGSG; UniProt Q9PWF3 23-64, looked up) [crotamine]", "values": [{"measurement": "cytotoxic effect on embryonic stem cells in culture", "setting": "[1]", "result": "does not present any cytotoxic effect"}, {"measurement": "co-location with BrDU staining in actively proliferating ES cells", "setting": "[2]", "result": "co-location"}, {"measurement": "time to paralysis of the hind legs", "setting": "mice", "result": "less than 15 minutes"}, {"measurement": "labeling of human fibroblasts", "setting": "human fibroblasts", "result": "intensively marked"}, {"measurement": "signal on cell islets of pluripotent embryonic stem cells", "setting": "[3]", "result": "strong signal"}, {"measurement": "binding to chromosomes", "setting": "chromosomes", "result": "binds to chromosomes in the metaphase"}]}
